This note sets out measurements from patent publication US20080124368A1, “Composition” (priority 2004, published 2008).

Molecules are shown by their SMILES.

The subject of this assay is human immunodeficiency virus (HIV). Nature of the assay: HIV viral assay (carried out by Imquest Bioscience). Type of assay: cell-based. The method, then: Antiviral compounds may be incorporated into polymers, such as hydrophilic polyurethanes or silicone, for certain applications where antiviral activities are needed.
The compound (0.5 gms) was protonated using dilute hydrochloric acid to a pH of 4 to a total volume of 30 ml. To 5 gms of this solution was added 5 gms of polyvinyl sulfonate (Aldrich, a 25 wt % aqueous solution). A white precipitate of the adduct immediately formed and remained colloidal without settling. This was used as such for an assay carried out by Imquest Bioscience, MD, and high dilutions were studied. […] These and other compounds could be incorporated into the polyurethane plastics of this invention for their slow delivery of antivirals; other viruses could be potentially also be deactivated.

For the molecule `c1c[nH]c(-c2ncc[nH]2)n1` [bimidazole, biimidazole], the “antiviral efficacy (in words)” value is “potent antiviral”.
